# Activity calls are given as the source filed them. No cut-off for these calls is given here.
# What was measured:
# Translocator protein = Translocator protein (Rattus norvegicus, UniProt P16257); test: Displacement of [3H]PK11195 from TSPO in rat kidney mitochondrial membrane
# [1] = system: GABA-A receptor, central benzodiazepine site (Rattus norvegicus); test: Displacement of [3H]flumazenil from central benzodiazepine site of GABA-A receptor in rat cerebral cortex membrane after 90 mins
# [2] = Drug level in monkey putamen at 0.155 to 0.859 nmol/kg, iv after 40 mins; type: ADME, organism-based, Macaca mulatta; settings: rhesus monkey, in vivo
# Plasma = test: Fraction unbound in monkey plasma at 0.155 to 0.859 nmol/kg, iv by PET analysis; type: ADME, organism-based, Macaca mulatta; settings: rhesus monkey, in vivo
# Chain of Translocator protein (P16257 whole entry, looked up): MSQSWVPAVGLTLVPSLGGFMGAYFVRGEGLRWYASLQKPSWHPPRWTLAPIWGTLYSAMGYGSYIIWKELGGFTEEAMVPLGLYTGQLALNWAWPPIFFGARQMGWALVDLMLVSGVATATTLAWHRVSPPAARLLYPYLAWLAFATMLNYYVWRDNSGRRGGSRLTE
Ki (Translocator protein) [nM],Activity [1],SUV [2],Fu (Plasma) [%],Structure (SMILES)
0.3,inactive,,,CCCCN(CCCC)C(=O)C(=O)c1c(-c2ccccc2)n(C)c2ccccc12
,inactive,,,CCN(Cc1ccccc1)C(=O)C(=O)c1c(-c2ccccc2)[nH]c2ccccc12
,inactive,,,CCCN(CCC)C(=O)C(=O)c1c(-c2ccccc2)[nH]c2ccc(F)cc12
,inactive,,,CCCCN(C)C(=O)C(=O)c1c(-c2ccccc2)[nH]c2ccccc12
19.8,inactive,,,CCCN(CCC)C(=O)C(=O)c1c(-c2ccc(F)cc2)n(C)c2ccccc12
5.7,,,,CCCN(CCC)C(=O)C(=O)c1c(-c2ccc([N+](=O)[O-])cc2)n(C)c2ccccc12
,inactive,,,CCCCCN(C)C(=O)C(=O)c1c(-c2ccccc2)[nH]c2ccccc12
1.8,inactive,,,CN(Cc1ccccc1)C(=O)C(=O)c1c(-c2ccc(F)cc2)[nH]c2ccccc12
2.92,inactive,,,CCN(Cc1ccccc1)C(=O)C(=O)c1c(-c2ccccc2)n(C)c2ccccc12
60.2,inactive,,,CCCCN(CC)C(=O)C(=O)c1c(-c2ccccc2)n(C)c2ccccc12
23.7,inactive,,,CCCN(CCC)C(=O)C(=O)c1c(-c2ccccc2)n(C)c2ccc(F)cc12
,,2.32,0.71,CCCN(CCC)C(=O)C(=O)c1c(-c2cc[11c]([N+](=O)[O-])cc2)n(C)c2ccccc12
,inactive,,,CCCCN(CC)C(=O)C(=O)c1c(-c2ccccc2)[nH]c2ccccc12
,inactive,,,CCCN(CCC)C(=O)C(=O)c1c(-c2ccc(F)cc2)[nH]c2ccccc12

# More lines, now with the values behind:
Structure (SMILES),Ki (Translocator protein) [nM],Activity [1],SUV [2],Fu (Plasma) [%]
CN(Cc1ccccc1)C(=O)C(=O)c1c(-c2ccc(F)cc2)n(C)c2ccccc12,6.77,inactive,,
CCCCCCN(CCCCCC)C(=O)C(=O)c1c(-c2ccc(F)cc2)n(C)c2ccccc12,1.07,inactive,,
CN(Cc1ccccc1)C(=O)C(=O)c1c(-c2ccccc2)n(C)c2ccccc12,20.9,inactive,,
CCCCCCN(CCCCCC)C(=O)C(=O)c1c(-c2ccc(F)cc2)[nH]c2ccccc12,,inactive,,
CCCCCCN(CCCCCC)C(=O)C(=O)c1c(-c2ccccc2)n(C)c2ccccc12,0.299,inactive,,
CCCCCCN(CCCCCC)C(=O)C(=O)c1c(-c2ccccc2)[nH]c2ccccc12,,inactive,,
CCCCCN(C)C(=O)C(=O)c1c(-c2ccccc2)n(C)c2ccccc12,38.2,inactive,,
CCCN(CCC)C(=O)C(=O)c1c(-c2ccccc2)[nH]c2ccccc12,,inactive,,
CCCCN(CCCC)C(=O)C(=O)c1c(-c2ccccc2)[nH]c2ccccc12,,inactive,,
CN(Cc1ccccc1)C(=O)C(=O)c1c(-c2ccccc2)[nH]c2ccccc12,12,inactive,,
CCCCN(C)C(=O)C(=O)c1c(-c2ccccc2)n(C)c2ccccc12,190,inactive,,
CCCN(CCC)C(=O)C(=O)c1c(-c2ccccc2)n(C)c2ccccc12,19.5,inactive,,
